Results from US8420695B2, “Inhibitors of janus kinases” (Merck Sharp & Dohme Corp., priority 2008, dated 2013).

Each compound was assayed against T1, recombinant JAK2 (JAK2 JH1 domain) (Homo sapiens, UniProt O60674) (assay: JAK2 Kinase Activity Inhibition Assay and Determination of IC50 (HTRF)). Conditions: 50 nM JAK2 JH1 domain, 15 μM MgATP, 80 min at room temperature.
T1 construct: 50 nM JAK2 JH1 domain (Upstate); purchased Upstate
Assay type: biochemical
Procedure: JAK2 Kinase Activity Inhibition Assay and Determination of IC50
The kinase activity was measured using a modified version of the homogeneous time-resolved tyrosine kinase assay described in Park et al. Anal. Biochem. 269, 94-104 (1999).
IC50 was obtained by fitting the observed relationship between compound/inhibitor concentration and HTRF signal with a 4-parameter logistic equation.

T1 sequence (O60674 849-1124 limits assumed): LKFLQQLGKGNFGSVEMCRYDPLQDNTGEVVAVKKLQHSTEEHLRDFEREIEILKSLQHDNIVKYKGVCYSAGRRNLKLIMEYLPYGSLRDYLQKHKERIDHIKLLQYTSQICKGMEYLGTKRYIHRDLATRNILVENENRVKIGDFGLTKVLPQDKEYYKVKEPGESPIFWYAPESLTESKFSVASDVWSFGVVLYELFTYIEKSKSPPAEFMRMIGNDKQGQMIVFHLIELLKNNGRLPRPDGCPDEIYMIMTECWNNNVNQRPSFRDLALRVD

IC50 [nM] | SMILES
410 | CC(C)(O)c1cc(F)c(-c2cc(C(N)=O)c(Nc3ccc(C=O)cc3)s2)c(F)c1 [Example 24, 5-[2,6-difluoro-4-(1-hydroxy-1-methylethyl)phenyl]-2-[(4-formylphenyl)amino]thiophene-3-carboxamide]
180 | NC(=O)c1cc(-c2ccccc2)sc1Nc1ccncc1 [Example 20, 5-Phenyl-2-(pyridin-4-ylamino)-thiophene-3-carboxamide]
1000 | NC(=O)c1cc(-c2ccccc2)sc1Nc1ccccc1 [Example 17, 2-Anilino-5-phenylthiophene-3-carboxamide]
320 | NC(=O)c1cc(-c2ccccc2)sc1Nc1cccnc1 [Example 18, 5-Phenyl-2-(pyridin-3-ylamino)-thiophene-3-carboxamide]
75 | CC(C)(O)c1cc(F)c(-c2cc(C(N)=O)c(Nc3ccnc(CO)c3)s2)c(F)c1 [Example 7, 5-[2,6-difluoro-4-(1-hydroxy-1-methylethyl)-phenyl]-2-{[2-(hydroxymethyl)-pyridin-4-yl]amino}thio-phene-3-carboxamide]
32 | CNC(=O)c1ccc(Nc2sc(-c3c(F)cc(C(C)(C)O)cc3F)cc2C(N)=O)cc1 [Example 4, 5-[2,6-difluoro-4-(1-hydroxy-1-methylethyl)-phenyl]-2-({4-[(methylamino)-carbonyl]phenyl}-amino)thiophene-3-carboxamide]
42 | CC(C)(O)c1cc(F)c(-c2cc(C(N)=O)c(Nc3ccc(CN4CCOCC4)cc3)s2)c(F)c1 [Example 23, 5-[2,6-difluoro-4-(1-hydroxy-1-methylethyl)-phenyl]-2-{[4-(morpholin-4-ylmethyl)-phenyl]amino}-thiophene-3-carboxamide]
44 | CN(C)S(=O)(=O)c1ccc(Nc2sc(-c3c(F)cc(C(C)(C)O)cc3F)cc2C(N)=O)cc1 [Example 29, 5-[2,6-difluoro-4-(1-hydroxy-1-methylethyl)-phenyl]-2-({4-[(dimethylamino)sulfonyl]phenyl}-amino)-thiophene-3-carboxamide]
56 | CC(C)(O)c1cc(F)c(-c2cc(C(N)=O)c(Nc3ccc(NS(C)(=O)=O)cc3)s2)c(F)c1 [Example 31, 5-[2,6-difluoro-4-(1-hydroxy-1-methylethyl)phenyl]-2-({4-[(methylsulfonyl)amino]phenyl}amino)thiophene-3-carboxamide]
2600 | NC(=O)c1cc(-c2ccccc2)sc1Nc1cncnc1 [Example 19, 5-Phenyl-2-(pyrimidin-5-ylamino)-thiophene-3-carboxamide]
1400 | Cc1noc(-c2ccc(Nc3sc(-c4c(F)cc(C(C)(C)O)cc4F)cc3C(N)=O)cc2)n1 [Example 9, 5-[2,6-difluoro-4-(1-hydroxy-1-methylethyl)-phenyl]-2-{[4-(3-methyl-1,2,4-oxadiazol-5-yl)phenyl]amino} thiophene-3-carboxamide]
26 | CC(C)(O)c1cc(F)c(-c2cc(C(N)=O)c(Nc3ccc(CN4CCS(=O)(=O)CC4)cc3)s2)c(F)c1 [Example 25, 5-[2,6-difluoro-4-(1-hydroxy-1-methylethyl)phenyl]-2-({4-[(1,1-dioxidothiomorpholin-4-yl)methyl]phenyl}amino)thiophene-3-carboxamide]
29 | CC(C)(O)c1ccc(Nc2sc(-c3c(F)cc(C(C)(C)O)cc3F)cc2C(N)=O)cc1 [Example 12, 5-[2,6-difluoro-4-(1-hydroxy-1-methylethyl)phenyl]-2-{[4-(1-hydroxy-1-methylethyl)phenyl]amino}thiophene-3-carboxamide]
490 | CC(C)(O)c1cc(F)c(-c2cc(C(N)=O)c(Nc3ccccc3)s2)c(F)c1 [Example 21, 2-anilino-5-[2,6-difluoro-4-(1-hydroxy-1-methylethyl)phenyl]thiophene-3-carboxamide]
22 | CN(C)Cc1ccc(Nc2sc(-c3c(F)cc(C(C)(C)O)cc3F)cc2C(N)=O)cc1 [Example 26, 5-[2,6-difluoro-4-(1-hydroxy-1-methylethyl)-phenyl]-2-({4-[(dimethylamino)methyl]phenyl}-amino)-thiophene-3-carboxamide]
47 | CC(C)(O)c1cc(F)c(-c2cc(C(N)=O)c(Nc3ccc(S(C)(=O)=O)cc3)s2)c(F)c1 [Example 1, 5-[2,6-difluoro-4-(1-hydroxy-1-methylethyl)phenyl]-2-{[4-(methylsulfonyl)phenyl]amino}thiophene-3-carboxamide]
170 | CC(C)(O)c1cc(F)c(-c2cc(C(N)=O)c(Nc3ccc(CO)cc3)s2)c(F)c1 [Example 22, 5-[2,6-difluoro-4-(1-hydroxy-1-methylethyl)-phenyl]-2-{[4-(hydroxymethyl)-phenyl]amino}-thiophene-3-carboxamide]
110 | CC(=O)c1ccc(Nc2sc(-c3c(F)cc(C(C)(C)O)cc3F)cc2C(N)=O)cc1 [Example 11, 2-[(4-acetylphenyl)amino]-5-[2,6-difluoro-4-(1-hydroxy-1-methylethyl)phenyl]thiophene-3-carboxamide]
56 | CC(C)(O)c1cc(F)c(-c2cc(C(N)=O)c(Nc3ccc(S(=O)(=O)N4CCOCC4)cc3)s2)c(F)c1 [Example 28, 5-[2,6-difluoro-4-(1-hydroxy-1-methylethyl)phenyl]-2-{[4-(morpholin-4-ylsulfonyl)phenyl]amino}thiophene-3-carboxamide]
220 | CS(=O)(=O)c1ccc(Nc2sc(-c3ccc(Cl)cc3)cc2C(N)=O)cc1 [Example 2, 5-(4-chlorophenyl)-2-{[4-(methylsulfonyl)-phenyl]amino}thio-phene-3-carboxamide]
21 | CC(C)(O)c1cc(F)c(-c2cc(C(N)=O)c(Nc3ccc(C(=O)N4CCOCC4)cc3)s2)c(F)c1 [Example 14, 5-[2,6-difluoro-4-(1-hydroxy-1-methylethyl)phenyl]-2-{[4-(morpholin-4-ylcarbonyl)phenyl]amino}thiophene-3-carboxamide]
220 | CC(C)(O)c1ccc(-c2cc(C(N)=O)c(Nc3cccnc3)s2)cc1 [Example 10, 5-(4-(1-Hydroxy-1-methylethyl)phenyl)-2-(3-pyridinylamino)-3-thiophenecarboxamide]
21 | CN(C)C(=O)c1ccc(Nc2sc(-c3c(F)cc(C(C)(C)O)cc3F)cc2C(N)=O)cc1 [Example 5, 5-[2,6-difluoro-4-(1-hydroxy-1-methylethyl)-phenyl]-2-({4-[(dimethylamino)carbonyl]phenyl}amino)thiophene-3-carboxamide]
120 | CC(C)(O)c1cc(F)c(-c2cc(C(N)=O)c(Nc3ccncc3)s2)c(F)c1 [Example 6, 5-[2,6-difluoro-4-(1-hydroxy-1-methylethyl)-phenyl]-2-(pyridin-4-ylamino)thio-phene-3-carboxamide]
